Measurements taken from patent US20060040911A1, “Method for preventing and/or treating the cardiovascular and hepatic diseases induced by hyperlipidemia which comprises administered an effective amount of bioflavonoids extract derived from fructus crataegus (lipid metabolism and fructus crataegus)” (priority 2003, published 2006).

Columns and labels:
ICR female mice = conditions: single oral dose (rutin 1500, quercetin 125, kaempherol 1000, vitexin 500 mg/kg), observed 30 days
[1] = tested on: liver of rabbits fed 1% cholesterol diet; assay: Fatty degeneration in the liver of the rabbits; format: in vivo, rabbit; conditions: 1% cholesterol plus 0.15% bioflavonoid or 1.5 mg/kg Simvastatin
Excerpt: According to the report of Fogt F. and Nanji A., (Toxicology and Applied Pharmacology; 136, pp 87-93, 1996) and Keegan A. et al., (Journal of Hepatology; 23, pp 591-600, 1995). […]

[2] = tested on: thoracic aorta of rabbits fed 1% cholesterol diet; assay: Analysis for fatty streak deposition in thoracic aorta; format: in vivo, rabbit; conditions: microscopic pictures, 1% cholesterol plus 0.15% bioflavonoid or 1.5 mg/kg simvastatin, control: thick layer
Experimental: The chest wall of each rabbit (sacrificed in Step B) was incised, a portion of thoracic aorta from 1 cm site above aortic valve downward for 5 cm was cut out. The surrounding fatty tissues were removed, the aorta was incised longitudinally and pinned to a dish. The moist aorta was then photographed, and staining of fatty streak was carried out with the method described by Esper, E. et al. (Journal of Lab. Clinical Medicine; 121, pp 103-110(1993)) as follows.
The opened portion of aortas were pinned to a wooden tongue depressor, washed three times for 2 minutes with anhydrous propylene glycol and stained for 30 minutes with saturated solution of Oil Red O dissolved in propylene glycol. Then the aortas were washed twice for 3 minutes with 85% propylene glycol, to remove remaining staining solution by washing with normal saline solution. The aortas were photographed, and the photographs were traced with an image analyzer (LEICA, Q-600, Germany), and the area of stained portion were fatty streak region, its proportion in percentile (%) to the total aorta area were calculated.

3-HMG-CoA reductase = target: T1, 3-HMG-CoA reductase (Oryctolagus cuniculus, UniProt Q29512); assay: Activity of 3-HMG-CoA reductase in liver microsomes (modified Hulcher's method); format: biochemical, rabbit; conditions: liver microsomes of rabbits fed 8 weeks 1% cholesterol plus 0.15% bioflavonoid; control group 0%
T1 construct: ultracentrifuged at 100,000 times gram for 60 minutes and again for another 60 minutes to obtain microsomal precipitates; from tissue; host or cells: rabbit liver microsomes
T1 sequence (Q29512 1-888): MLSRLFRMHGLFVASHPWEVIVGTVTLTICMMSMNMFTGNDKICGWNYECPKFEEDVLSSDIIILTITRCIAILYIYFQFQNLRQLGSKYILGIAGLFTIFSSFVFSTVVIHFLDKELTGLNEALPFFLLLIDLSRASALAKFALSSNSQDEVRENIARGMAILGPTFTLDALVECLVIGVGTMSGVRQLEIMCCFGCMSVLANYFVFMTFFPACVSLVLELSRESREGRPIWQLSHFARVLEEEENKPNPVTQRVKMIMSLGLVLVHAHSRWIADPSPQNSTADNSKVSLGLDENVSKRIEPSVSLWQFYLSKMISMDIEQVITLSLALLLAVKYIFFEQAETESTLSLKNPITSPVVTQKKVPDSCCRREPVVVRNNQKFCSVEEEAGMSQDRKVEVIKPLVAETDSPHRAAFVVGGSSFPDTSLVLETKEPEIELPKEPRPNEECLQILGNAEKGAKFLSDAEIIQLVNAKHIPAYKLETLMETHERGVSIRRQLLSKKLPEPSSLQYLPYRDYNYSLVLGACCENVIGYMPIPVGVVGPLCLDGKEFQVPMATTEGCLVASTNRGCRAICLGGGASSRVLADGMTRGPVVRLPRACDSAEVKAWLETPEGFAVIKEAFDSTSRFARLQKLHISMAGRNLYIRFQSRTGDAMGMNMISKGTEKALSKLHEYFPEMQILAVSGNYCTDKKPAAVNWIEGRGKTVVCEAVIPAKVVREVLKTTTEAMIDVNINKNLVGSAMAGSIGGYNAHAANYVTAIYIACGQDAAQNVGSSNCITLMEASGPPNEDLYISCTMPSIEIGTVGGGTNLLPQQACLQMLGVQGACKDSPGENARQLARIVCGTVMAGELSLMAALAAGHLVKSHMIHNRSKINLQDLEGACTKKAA
Experimental: The activity of 3-HMG-CoA reductase was determined by modified Hulcher's method (Journal of lipid research; 14, 625-641, 1973), in which the concentration of Co-A will be produced when 3-HMG-CoA is reduced to mevalonate salt by the action of the 3-HMG-CoA reductase; then the reductase was determined by spectroscopy and the activity of the 3-HMG-CoA reductase was calculated.
Liver tissues from each group of rabbits from Example 4 Step B were obtained, 3 gram of tissue was washed with 100 ml of cold normal saline (1 N NaCl) and 100 ml of cold buffer solution-A (0.1M triethanolamine HCl/10 mM EDTA/10 mM dithiothreitol (DTT)). A cold buffered solution-A and liver tissue ratio was 2 ml per each gram. Then the mixture was minced and homogenized with a homogenizer, the homogenate was centrifuged at 20,000 times gram for 15 minutes, the supernatant was ultracentrifuged at 100,000 times gram for 60 minutes and again for another 60 minutes to obtain microsomal precipitates. The precipitates were washed with cold buffer solution-A and kept at minus 70 degree C. till ready for analysis.
There were 3 reactive substrates used in this assay (a) buffer solution B; 0.1 M triethanolamine HCl/10 mM EDTA with ph 7.4 (b) 3-HMG-CoA solution; 150 mu.moles/culture medium, (c) NADPH solution; 2 mu.moles/culture medium.
The microsomal suspension was then mixed with reaction substrates in a centrifuge tube and allowed to react at 37 degree C. for 30 minutes, then added with 20 mu 1 of 10 mM sodium arsenous solution and allowed to react for 1 minute, and then added with 100 µl of citrate buffer solution (2M sodium citrate/3 M sodium tungstate, with Ph of 3.5) at 37 degree C. for 10 minutes, then centrifuged at 30,000 times gram for 15 minutes to remove protein. […]
The mixture was then added with 20 µl of DTNB buffer solution (3 mM DTNB/0.1M triethanolamine/10 mM EDTA with PH of 7.4). The absorbance of this mixture was determined at wave length of 412 nm to calculate the amount of CoA that is the activity of 3-HMG-CoA reductase.

Row | SMILES | survival (ICR female mice) | microscopic features of the liver (FIGS. 2B-2F) [1] | macrophage lipid cell complex in the aorta walls (FIGS. IB-IF) [2] | Inhibition on the activity of 3-HMG-CoA reductase in percentage (%) (3-HMG-CoA reductase) | body weight (ICR female mice)
1 | O=c1c(O)c(-c2ccc(O)cc2)oc2cc(O)cc(O)c12 [Kaempherol, 3,5,7,4′ tetra-hydroxy-flavone] | alive at day 31 | almost all of the liver cells are normal without containing fat particles | no or a very thin layer of macrophage lipid cell complex |  | 
2 | O=c1c(O)c(-c2ccc(O)c(O)c2)oc2cc(O)cc(O)c12 [Quercetin, 3,5,7,3′,4′ penta-hydroxy flavone] | alive at day 31 | almost all of the liver cells are normal without containing fat particles | no or a very thin layer of macrophage lipid cell complex | 32 | 
3 | O=c1cc(-c2ccc(O)cc2)oc2c(C3O[C@H](CO)[C@@H](O)[C@H](O)[C@H]3O)c(O)cc(O)c12 (stereo partly drawn) [Vitexin, 8-D-glucosyl-4′,5,7 trihydroxy-flavone] | alive at day 31 | almost all of the liver cells are normal without containing fat particles | no or a very thin layer of macrophage lipid cell complex | 30 | no body weight loss
4 | C[C@@H]1O[C@@H](OC[C@H]2O[C@@H](Oc3c(-c4ccc(O)c(O)c4)oc4cc(O)cc(O)c4c3=O)[C@H](O)[C@@H](O)[C@@H]2O)[C@H](O)[C@H](O)[C@H]1O [Rutin, quercetin-3-rutinoside] | alive at day 31 |  |  | 45 | no body weight loss
